Test results: patent publication US4016159A, “Acylamino-cephem-carboxylic acids containing an amidino or guanidino group in the molecule” (Hoechst Aktiengesellschaft, priority 1973, dated 1977)
Converted amounts (≈) assume the structure as drawn. Where a name gives a salt, the structure may show the parent alone.

Key:
Format in all cases: cell-based
[1] = tested on: Staphylococcus aureus SG 511; assay: Minimum inhibition concentration (MIC), Table 5; conditions: for MIC: Staphylococcus aureus, SG511, Germ: Staphylococcus aureus SG 511, read-out: Minimum inhibition concentration (MIC); for Minimum inhibition concentration (MIC): Germ: Staphylococcus aureus SG 511
Text: (§1) Minimum inhibition concentration (MIC) in γ/ml
Germ: Staphylococcus aureus SG 511

[2] = tested on: Staphylococcus aureus 285; assay: Minimum inhibition concentration (MIC), Table 1; conditions: for MIC: Staphylococcus aureus, 285, Germ: Staphylococcus aureus 285, read-out: Minimum inhibition concentration (MIC); for Minimum inhibition concentration (MIC): Germ: Staphylococcus aureus 285
Text: as §1
Germ: Staphylococcus aureus 285

Streptococcus pyogenes A = assay: Minimum inhibition concentration (MIC), Table 3; conditions: Germ: Streptococcus pyogenes A; for MIC: read-out: Minimum inhibition concentration MIC
Text: Minimum inhibition concentration MIC in γ/ml
Germ: Streptococcus pyogenes A

Streptococcus D = assay: Minimum inhibition concentration (MIC), Table 4; conditions: Germ: Streptococcus D; for MIC: Streptococcus, read-out: Minimum inhibition concentration (MIC)
Text: as §1

Compound	MIC [2]	MIC (Streptococcus pyogenes A)	MIC (Streptococcus D)	further results
COc1cc(C(=N)N)ccc1OCC(=O)NC1C(=O)N2C(C(=O)O)=C(CSc3nnc(C)s3)CSC12 (stereo not shown) [Example 128, 3-[(5-methyl-1,3,4-thiadizole-2-yl)-thiomethyl]-7(4-amidino-2-methoxy-phenoxy-acetamido)-Δ3-cephem-4-carboxylic acid]	0.156 to 0.391 µg/mL (≈ 0.283 to 0.71 µM)	0.008 to 0.0156 µg/mL (≈ 0.0145 to 0.0283 µM)		MIC [1]: 0.0625 to 0.078 µg/mL (≈ 0.114 to 0.142 µM)
3-[(5-methyl-1,3,4-thiadiazole-2-yl)-thiomethyl]-7-[4-(imidazoline-2-yl)-2-methoxyphenoxy-acetamido]-Δ3-cephem-4-carboxylic acid [Example 126]				Minimum inhibition concentration (MIC) [2]: 0.5 to 1.25 µg/mL; Minimum inhibition concentration (MIC) (Streptococcus D): 10 to 50 µg/mL; Minimum inhibition concentration (MIC) (Streptococcus pyogenes A): 0.008 to 0.0156 µg/mL
N=C(N)c1ccc(CC(=O)NC2C(=O)N3C(C(=O)O)=C(CSc4nnco4)CSC23)cc1 (stereo not shown) [Example 61, 3-[(1,3,4-oxadiazole-2-yl)-thiomethyl]-7-(4-amidino-phenylacetamido)-Δ 3-cephem-4-carboxylic acid]	0.5 to 1.25 µg/mL (≈ 1.05 to 2.63 µM)	0.008 to 0.0156 µg/mL (≈ 0.0169 to 0.0329 µM)	10 to 50 µg/mL (≈ 21.1 to 105 µM)	
Cc1nnc(SCC2=C(C(=O)O)N3C(=O)C(NC(=O)COc4ccc(C(=N)N)cc4)C3SC2)s1 (stereo not shown) [Example 35, 3-[(5-methyl-1,3,4-thiadiazole-2-yl)-thiomethyl]-7-[4-amidinophenoxy-acetamido]-Δ 3-cephem-4-carboxylic acid hydrochloride]		0.000391 to 0.0078 µg/mL	10 to 50 µg/mL	Minimum inhibition concentration (MIC) ([1]; hydrochloride): 0.0625 to 0.078 µg/mL
Cc1nnc(SCC2=C(C(=O)O)N3C(=O)C(NC(=O)COc4ccc(C(=N)N)cc4)C3SC2)s1 (stereo not shown) [Example 46, 3-[(5-methyl-1,3,4-thiadiazole-2-yl)-thiomethyl]-7-[4-amidinophenoxyacetamido]-Δ 3-cephem-4-carboxylic acid]	0.5 to 1.25 µg/mL (≈ 0.96 to 2.4 µM)			Minimum inhibition concentration (MIC) [1]: 0.0196 to 0.0391 µg/mL
Cc1nnc(SCC2=C(C(=O)O)N3C(=O)C(NC(=O)Cc4ccc(C(=N)N)cc4)C3SC2)s1 (stereo not shown) [Example 26, 3-[(5-methyl-1,3,4-thiadiazole-2-yl)-thiomethyl]-7-(4-amidinophenylacetamido)-Δ 3-cephem-4-carboxylic acid]			10 to 50 µg/mL (≈ 19.8 to 99.1 µM)	MIC [1]: 0.0625 to 0.078 µg/mL (≈ 0.124 to 0.155 µM)
O=C(Cc1ccc(C2=NCCCN2)cc1)NC1C(=O)N2C(C(=O)O)=C(CSc3nnc(-c4ccccc4)o3)CSC12 (stereo not shown) [Example 83, 3-[(5-phenyl-1,3,4-oxadiazole-2-yl)-thiomethyl]-7-[4-(1,4,5,6-tetrahydropyrimide-2-yl)-phenylacetamido]-Δ 3-cephem-4-carboxylic acid]		0.000391 to 0.0078 µg/mL (≈ 0.000662 to 0.0132 µM)	10 to 50 µg/mL (≈ 16.9 to 84.6 µM)	Minimum inhibition concentration (MIC) [2]: 0.5 to 1.25 µg/mL
CCCCc1nnc(SCC2=C(C(=O)O)N3C(=O)C(NC(=O)Cc4ccc(C5=NCCCN5)cc4)C3SC2)o1 (stereo not shown) [Example 81, 3-[(5-n-butyl-1,3,4-oxadiazole-2-yl)-thiomethyl]-7-[4-(1,4,5,6-tetrahydropyrimide-2-yl)-phenyl-acetamido]-Δ 3-cephem-4-carboxylic acid]	1.6 to 2.5 µg/mL (≈ 2.8 to 4.38 µM)	0.008 to 0.0156 µg/mL (≈ 0.014 to 0.0273 µM)	10 to 50 µg/mL (≈ 17.5 to 87.6 µM)	
CCc1csc(SCC2=C(C(=O)O)N3C(=O)C(NC(=O)Cc4ccc(C5=NCCN5)cc4)C3SC2)n1 (stereo not shown) [Example 115, 3-[(4-ethyl-thiazole-2-yl)-thiomethyl]-7-[4-(imidazoline-2-yl)-phenylacetamido]-Δ3-cephem-4-carboxylic acid]	1.6 to 2.5 µg/mL (≈ 2.94 to 4.6 µM)	0.000391 to 0.0078 µg/mL (≈ 0.000719 to 0.0143 µM)	10 to 50 µg/mL (≈ 18.4 to 92 µM)	
Cc1nnc(SCC2=C(C(=O)O)N3C(=O)C(NC(=O)COc4ccc(C5=NCCN5)cc4)C3SC2)s1 (stereo not shown) [Example 75, 3-[(5-methyl-1,3,4-thiadiazole-2-yl)-thiomethyl]-7-[4-(imidazoline-2-yl)-phenoxyacetamido]-Δ 3-cephem-4-carboxylic acid]	0.5 to 1.25 µg/mL (≈ 0.915 to 2.29 µM)	0.000391 to 0.0078 µg/mL (≈ 0.000715 to 0.0143 µM)	10 to 50 µg/mL (≈ 18.3 to 91.5 µM)	
Cc1ccnc(SCC2=C(C(=O)O)N3C(=O)C(NC(=O)Cc4ccc(C5=NCCCN5)cc4)C3SC2)n1 (stereo not shown) [Example 102, 3-[(4-methyl-pyrimide-2-yl)-thiomethyl]-7-[4-(1,4,5,6-tetrahydropyrimide-2-yl)-phenylacetamido]-Δ3-cephem-4-carboxylic acid]	1.6 to 2.5 µg/mL (≈ 2.97 to 4.64 µM)	0.008 to 0.0156 µg/mL (≈ 0.0149 to 0.029 µM)	10 to 50 µg/mL (≈ 18.6 to 92.8 µM)	
N=C(N)Nc1ccc(CC(=O)NC2C(=O)N3C(C(=O)O)=C(CSc4nccs4)CSC23)cc1 (stereo not shown) [Example 8]	0.5 to 1.25 µg/mL (≈ 0.991 to 2.48 µM)		10 to 50 µg/mL (≈ 19.8 to 99.1 µM)	MIC [1]: 0.0625 to 0.078 µg/mL (≈ 0.124 to 0.155 µM)
N=C(N)c1ccc(OCC(=O)NC2C(=O)N3C(C(=O)O)=C(CSc4nnc(N)s4)CSC23)cc1 (stereo not shown) [Example 49, 3-[(5-amino-1,3,4-thiadiazole-2-yl)-thiomethyl]-7-(4-amidinophenoxyacetamido)-Δ 3-cephem-4-carboxylic acid]	0.5 to 1.25 µg/mL (≈ 0.959 to 2.4 µM)		10 to 50 µg/mL (≈ 19.2 to 95.9 µM)	MIC [1]: 0.0625 to 0.078 µg/mL (≈ 0.12 to 0.15 µM)
N=C(N)c1ccc(CC(=O)NC2C(=O)N3C(C(=O)O)=C(CSc4nnc(N)s4)CSC23)cc1 (stereo not shown) [Example 59, 3-[(5-amino-1,3,4-thiadiazole-2-yl)-thiomethyl]-7-(4-amidinophenylacetamido)-Δ 3-cephem-4-carboxlic acid]	0.5 to 1.25 µg/mL (≈ 0.989 to 2.47 µM)	0.000391 to 0.0078 µg/mL (≈ 0.000773 to 0.0154 µM)	10 to 50 µg/mL (≈ 19.8 to 98.9 µM)	
